Read-outs that look alike come from different tables or passages of the source.
Key:
[1] = tested on: LoVo colorectal cancer cell line; experiment: LoVo growth inhibition, ceralasertib alone or with carboplatin; format: cell-based, human; conditions: Homo sapiens, LoVo, read-out: GI50 (50% growth inhibition)
patients = conditions: cited from earlier work

GI50 [1]: 90 nM
SMILES: CNCc1ccc(-c2cc(-c3nc(-c4ccc(S(=O)(=O)C(C)C)cc4)cnc3N)on2)cc1 [berzosertib]
Tolerability (patients; 90 mg/m^2 + carboplatin AUC5): tolerated | Patients with grade 3/4 neutropenia (patients; 240 mg/m^2 + carboplatin AUC5, 3 patients): 3 patients | Tolerability (patients; 240 mg/m^2 days 1 and 8 every 21 days + carboplatin AUC5 day 1): not tolerated

From article PMC9401487 (Clinical Cancer Research, 2021)
